Article PMC3237907 (Nano letters, 2011)

Target: T1, ParM mutant (His6/K33A/D63C/T174A/T175N/D224C/C287A), TMR-labelled ADP sensor (Escherichia coli, UniProt P11904, C287A/D224C/D63C/K33A/T174A/T175N)
T1 sequence (P11904 1-320 K33A/D63C/T174A/T175N/D224C/C287A): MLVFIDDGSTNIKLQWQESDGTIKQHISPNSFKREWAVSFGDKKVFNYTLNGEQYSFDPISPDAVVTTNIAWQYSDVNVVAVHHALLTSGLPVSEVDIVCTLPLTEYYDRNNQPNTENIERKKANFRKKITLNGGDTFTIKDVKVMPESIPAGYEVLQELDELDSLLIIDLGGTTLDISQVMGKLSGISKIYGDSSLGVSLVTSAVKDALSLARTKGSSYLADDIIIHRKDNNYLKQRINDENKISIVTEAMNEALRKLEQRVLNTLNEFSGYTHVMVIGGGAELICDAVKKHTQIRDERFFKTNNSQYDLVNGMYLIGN
Assay: single-molecule TIRF, TMR self-quenching
Type: binding

Compound: Nc1ncnc2c1ncn2[C@@H]1O[C@H](COP(=O)(O)OP(=O)(O)O)[C@@H](O)[C@H]1O [ADP]
- Kd: 20 ± 3 µM
